Consider one compound from patent US20020142982A1, “Method for regulating angiogenesis” (priority 1999, published 2002).

The test relates to HUVEC. As to the kind of experiment: Actin cytoskeleton (stress fibers, cortical actin) in HUVEC, phalloidin staining. Type of test: cell-based, human. The note with it: 500 nM SPP, 30 minutes. On the procedure: SPP is known to induce Rho-dependent actin stress fibers in NIH3T3 fibroblasts. To disclose Rho- or Rac-dependence, HUVEC were plated at 2×10^5 cells in 35 mm glass bottom petri dishes (Plastek cultureware, Mat Tek Corporation, Ashland Mass.). Two days later, recently confluent cells were washed and changed to medium M199 supplemented with 10% dialyzed charcoal-stripped fetal bovine serum (CFBS) and growth factors for 16 hours. Approximately 500-800 cells were then microinjected cytoplasmically with Rho inhibitor C3 exoenzyme (0.1 μg/μL, Calbiochem) or dominant negative N17Rac protein (0.35 μg/μl; Ridley, A., et al., Cell 70: 401-410 (1992)) using Femtotips (Eppendorf) at 100 hPa/0.2 sec. Injected cells were marked by coinjection of FITC-rabbit IgG (5 mg/mL, Cappel).
Subsequently, cells were treated with or without SPP. After treatment cells were washed with ice-cold PBS, fixed with 4% formaldehyde at room temperature or methanol at −20° C. for 15 minutes. In the case of formaldehyde fixation, cells were permeabilized with 0.2% Triton X-100 (TX-100). Actin microfilaments were visualized by staining with either FTOC- or TRITC-conjugated phalloidin (0.05 μg/mL, Sigma) for 30 minutes at room temperature.

SMILES strings stand for the structures.

Consider `CCCCCCCCCCCCC/C=C/[C@@H](O)[C@@H](N)COP(=O)(O)O` [SPP, sphingosine-1-phosphate], for which the “formation of stress fibers and cortical actin” value is recorded as “induced the formation of stress fibers”.
